Test results: the supplement of paper PMC9763283
Where “and” joins values, the source holds several entries; their conditions need not be identical. Equal entries are not always repeated.

Experiments:
Experiment in all cases: area under growth-rate inhibition curve (AUC GRI) (dimensionless (GR-based AUC)); higher = less growth inhibition
Settings in all cases: exposure time: 72 h; concentrations: 0.1, 1, 10 uM
[1] = system: BT474-P
Summary of the method: (§1)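 The area under the growth-rate inhibition curve was measured in six breast cancer cell line models, covering triple-negative lines and HER2+ lines, both parental and resistant to a two-drug combination. Cells were exposed to compound at 0.1, 1 or 10 µM for 72 h, fixed in 4% paraformaldehyde, and nuclei were stained with Hoechst 33342 or DAPI for imaging and counting. Day 0 plates, untreated Day 3 plates and DMSO controls served to correct growth across 2 biological replicates.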

[2] = system: SKBR3-P
Summary of the method: as §1

[3] = system: SKBR3-LTR
Summary of the method: as §1

[4] = system: BT474-LTR
Summary of the method: as §1

[5] = system: MDA-MB-468
Summary of the method: as §1

[6] = system: MDA-MB-231
Summary of the method: as §1

SMILES | area under growth-rate inhibition curve [1] | area under growth-rate inhibition curve [2] | area under growth-rate inhibition curve [3] | area under growth-rate inhibition curve [4] | area under growth-rate inhibition curve [5] | area under growth-rate inhibition curve [6]
COc1ccc2c(c1)c(CC(=O)N1CCOCC1)c(C)n2C(=O)c1ccc(Cl)cc1 [BML-190] | 1.03 | 1.02 | 1.03 | 1.08 | 1.01 | 1.01
Cl.Cl.NCCc1cnc[nH]1 [Histamine 2HCl] | 1.05 | 1.01 | 1.05 | 1.11 | 1.02 | 1.02
CC#C[C@]1(O)CC[C@H]2[C@@H]3CCC4=CC(=O)CCC4=C3[C@@H](c3ccc(N(C)C)cc3)C[C@@]21C [Mifepristone] | 1 | 0.962 | 0.998 | 1.02 | 0.989 | 1.03
CN[C@H](CC(=O)O)C(=O)O [NMDA (N-Methyl-D-aspartic acid)] | 1.08 | 1.07 | 1.08 | 1.09 | 1.04 | 1.04
COCCCN1CCC(NC(=O)c2cc(Cl)c(N)c3c2OCC3)CC1 [Prucalopride] | 1.02 | 1.01 | 1.06 | 1.07 | 1.04 | 1.05
N#Cc1cc(CN2CCC(Nc3ncnc4sc(Cl)cc34)CC2)ccc1F.O=C(O)/C=C\C(=O)O | 0.879 | 0.839 | 0.964 | 0.875 | 0.885 | 0.988
Cc1cccc(C)c1NC(=O)CN1CCCC1=O [Nefiracetam] | 1.05 | 1 | 1.03 | 1.06 | 1.03 | 1.02
Cl.Cl.OCCN1CCN(CCCN2c3ccccc3Sc3ccc(C(F)(F)F)cc32)CC1 [Fluphenazine dihydrochloride?] | 1.01 | 1.02 | 1.05 | 1.02 | 1.03 | 1.03
CNCC(O)c1ccc(O)cc1.Cl (stereo unspecified) [Synephrine HCl] | 1.05 | 1.01 | 1.07 | 1.11 | 1.05 | 0.993
CCCN1CCO[C@H]2c3cc(O)ccc3OC[C@@H]21 | 1.08 | 1.03 | 1.05 | 1.06 | 1.03 | 1.02
CC1CCN(CCC2CCCN2S(=O)(=O)c2cccc(O)c2)CC1.Cl (stereo unspecified) | 1.04 | 1 | 1.05 | 1.06 | 1.02 | 1.02
N#Cc1ccccc1-c1cc(-c2ccccn2)cn(-c2ccccc2)c1=O [Perampanel] | 1.01 | 1.03 | 1.05 | 1.05 | 1.02 | 1.03
COc1ccccc1N1CCN(CCN2C(=O)CC3(CCCC3)CC2=O)CC1.[Cl-].[Cl-].[H+].[H+] [BMY 7378] | 1.03 | 0.982 | 1.1 | 1.11 | 1.02 | 1.03
CCC1(c2c[nH]cn2)Cc2ccccc2C1 [Atipamezole] | 1.04 | 1.01 | 1.09 | 1.08 | 1.01 | 1.02
CN(C)CC(c1ccc(O)cc1)C1(O)CCCCC1 (stereo unspecified) [Desvenlafaxine] | 1.03 | 1 | 1.05 | 1.07 | 1.03 | 1
CNC(=NCCSCc1nc[nH]c1C)NC#N [Cimetidine] | 1.02 and 1.06 | 1.02 | 1.05 and 1.06 | 1.05 and 1.12 | 1.04 and 1.03 | 1.04 and 1.05
CN1CCN(c2nc3ccccc3nc2Cl)CC1 | 0.997 | 0.987 | 1.01 | 1.01 | 0.986 | 0.97
Cc1cccc(C(C)c2c[nH]cn2)c1C.Cl (stereo unspecified) [Medetomidine HCl] | 0.995 | 1.03 | 0.995 | 0.982 | 1.02 | 1.01
Br.COc1ccc2c(c1)[C@@]13CCCCC1C(C2)N(C)CC3 (stereo partly specified) [Dextromethorphan hydrobromide] | 1.01 | 1.02 | 1.06 | 1.04 | 1.03 | 1.04
OCCOCCN1CCN(C(c2ccccc2)c2ccc(Cl)cc2)CC1.[Cl-].[Cl-].[H+].[H+] (stereo unspecified) [Hydroxyzine 2HCl] | 1.08 | 0.995 | 1.05 | 1.1 | 1.04 | 1.01
CCC1(c2ccccc2)C(=O)NCNC1=O [Primidone] | 0.982 | 1.03 | 1.06 | 1.02 | 1.03 | 1.04

SMILES | area under growth-rate inhibition curve [1] | area under growth-rate inhibition curve [2] | area under growth-rate inhibition curve [3] | area under growth-rate inhibition curve [4] | area under growth-rate inhibition curve [5] | area under growth-rate inhibition curve [6]
Cc1c(-c2ccc(O)cc2)n(Cc2ccc(OCCN3CCCCCC3)cc2)c2ccc(O)cc12.[Cl-].[H+] [Bazedoxifene HCl] | 0.755 | 0.956 | 0.944 | 0.949 | 0.898 | 0.9
COc1cc2nc(N3CCN(C(=O)C4CCCO4)CC3)nc(N)c2cc1OC.O.[Cl-].[H+] (stereo unspecified) [Terazosin HCl] | 1.02 | 1.03 | 1.1 | 1.09 | 1.04 | 1.02
C[C@]12CC[C@@H]3c4ccc(O)cc4C[C@@H](CCCCCCCCCS(=O)CCCC(F)(F)C(F)(F)F)[C@H]3[C@@H]1CC[C@@H]2O (stereo partly specified) [Fulvestrant] | 0.778 | 0.952 | 1.01 | 0.986 | 0.96 | 1.02
CN1CCN(C(c2ccccc2)c2ccccc2)CC1.[Cl-].[Cl-].[H+].[H+] [Cyclizine 2HCl] | 1.03 | 1.01 | 1 | 1.07 | 1.02 | 1.03
O=C(c1ccc(OCCN2CCCCC2)cc1)c1c(-c2ccc(O)cc2)sc2cc(O)ccc12.[Cl-].[H+] [Raloxifene HCl] | 0.82 | 0.996 | 0.996 | 0.931 | 0.931 | 0.957
CN(C)CCc1c[nH]c2ccc(C[C@H]3COC(=O)N3)cc12 [Zolmitriptan] | 1.06 | 1.03 | 1.07 | 1.09 | 1.05 | 1.06
C[C@]12CCC(=O)C=C1CC[C@H]1[C@@H]3CC[C@@](C)(O)[C@@]3(C)C[C@H](O)[C@@]12F [Fluoxymesterone] | 0.937 | 1.01 | 1.03 | 0.955 | 1.04 | 0.995
CN(C)CCC(c1ccc(Br)cc1)c1ccccn1.O=C(O)/C=C\C(=O)O (stereo unspecified) [Brompheniramine hydrogen maleate] | 1.05 | 0.998 | 1.04 | 1.09 | 1.04 | 1.03
Nc1ncnc2c1c(I)cn2[C@@H]1O[C@H](CO)[C@H](O)C1O (stereo partly specified) [5-Iodotubercidin] | 0.676 | 0.632 | 0.627 | 0.673 | 0.73 | 0.705
CC(=O)[C@@]1(O)CC[C@H]2[C@@H]3CCC4=CC(=O)CC[C@]4(C)[C@H]3CC[C@@]21C [17-Hydroxyprogesterone] | 1.02 | 1 | 1.03 | 1.07 | 1 | 1.02
Cc1nc(C#Cc2ccnc(Cl)c2)c(C)n1-c1ccc(OC(F)(F)F)cc1 | 0.969 | 1 | 0.968 | 1.09 | 1 | 1.03
NC(=O)OCC(COC(N)=O)c1ccccc1 [Felbamate] | 1.01 | 1.03 | 1.05 | 1.02 | 1.03 | 1.04
COc1cc(C(C)=O)ccc1OCCCN1CCC(c2noc3cc(F)ccc23)CC1 [Iloperidone] | 0.979 | 0.991 | 1.07 | 1.02 | 1.03 | 1.04
C[C@H]1CNCCc2ccc(Cl)cc21.[Cl-].[H+] [Lorcaserin HCl] | 1.06 | 1.03 | 1.03 | 1.09 | 1.03 | 1.02
CCCSc1nc(NC2CC2c2ccc(F)c(F)c2)c2nnn(C3CC(OCCO)C(O)C3O)c2n1 (stereo unspecified) [Ticagrelor] | 0.922 | 0.995 | 0.968 | 0.984 | 0.975 | 0.975
COc1ccc(C[C@@H]2c3cc(OC)c(OC)cc3CC[N@+]2(C)CCC(=O)OCCCCCOC(=O)CC[N@@+]2(C)CCc3cc(OC)c(OC)cc3[C@H]2Cc2ccc(OC)c(OC)c2)cc1OC.O=S(=O)([O-])c1ccccc1.O=S(=O)([O-])c1ccccc1 [Cisatracurium Besylate] | 0.998 | 0.961 | 1.01 | 1.01 | 0.988 | 0.997
COc1ccccc1N1CCN(CCN(C(=O)C2CCCCC2)c2ccccn2)CC1.O=C(O)/C=C\C(=O)O | 1.02 | 0.976 | 1.04 | 1.06 | 0.993 | 1.03
CN/C(=C\[N+](=O)[O-])NCCSCc1ccc(CN(C)C)o1 [Ranitidine] | 1.07 | 1.03 | 1.03 | 1.1 | 1.04 | 1.01
C=CC[N+]1(C2CC3C4CCC5CC(O)C(N6CCOCC6)CC5(C)C4CCC3(C)C2OC(C)=O)CCCC1.[Br-] (stereo unspecified) [Rocuronium Bromide] | 1.07 | 1.03 | 1.05 | 1.1 | 1.03 | 1.02
CC[N+](CC)(CC)CCOc1cccc(OCC[N+](CC)(CC)CC)c1OCC[N+](CC)(CC)CC.[I-].[I-].[I-] [Gallamine Triethiodide] | 1.02 | 1 | 1.03 | 1.08 | 1.01 | 1.03
